How the values were obtained:
GSK-3β = GSK-3β (Oryctolagus cuniculus, UniProt G1T8E2); experiment: GSK-3β kinase assay; type: biochemical, rabbit; conditions: Table 2; read-out: Kinase inhibition IC50 GSK3
Experimental: GSK-3 was obtained from New England Biolabs (UK) Ltd., Hitchin, Herts. The recombinant enzyme was isolated from a strain of E. coli that carries a clone expressing GSK-3β derived from a rabbit skeletal muscle cDNA library [Wang, Q. M.; Fiol, C. J.; DePaoli-Roach, A. A.; Roach, P. J. J. Biol. Chem., 1994, 269, 14566]. Inhibition of GSK-3 function was assessed by measurement of phosphorylation of CREB phosphopeptide KRREILSRRPphosphoSYR in the presence of test compounds. Using a 96-well assay format, GSK3 (7.5 U) was incubated for 30 min at 30° C. in a total volume of 25 μL in 20 mM MOPS pH 7.2, 25 mM β-glycerophosphate, 5 mM EGTA, 1 mM DTT, 1 mM […], 40 μM CREB peptide, 15 mM MgCl2 and 100 μM ATP (containing 0.25 μCi [γ-^32P]-ATP) in the presence of varying concentrations of test compound. The samples were transferred to 96-well p81 filter plates (Whatman Polyfiltronics, Kent, UK), and the plates were washed 4 times with 200 μL/well of 75 mM aq orthophosphoric acid. Scintillation liquid (50 μL) was added to each well, and incorporated radioactivity for each sample was determined using a scintillation counter (TopCount, Packard Instruments, Pangbourne, Berks, UK).

CDK1/cyclin B = CDK1/cyclin B (Homo sapiens, UniProt P06493); experiment: Kinase assay CDK1/cyclin B; type: biochemical; conditions: Table 2; read-out: Kinase inhibition IC50 CDK1B
Experimental: The compounds from the examples above were investigated for their ability to inhibit the enzymatic activity of various protein kinases. This was achieved by measurement of incorporation of radioactive phosphate from ATP into appropriate polypeptide substrates. Recombinant protein kinases and kinase complexes were produced or obtained commercially. Assays were performed using 96-well plates and appropriate assay buffers (typically 25 mM β-glycerophosphate, 20 mM MOPS, 5 mM EGTA, 1 mM DTT, 1 mM […], pH 7.4), into which were added 2-4 μg of active enzyme with appropriate substrates. The reactions were initiated by addition of Mg/ATP mix (15 mM MgCl2+100 μM ATP with 30-50 kBq per well of [γ-^32P]-ATP) and mixtures incubated as required at 30° C. Reactions were stopped on ice, followed by filtration through p81 filterplates or GF/C filterplates (Whatman Polyfiltronics, Kent, UK). After washing 3 times with 75 mM aq orthophosphoric acid, plates were dried, scintillant added and incorporated radioactivity measured in a scintillation counter (TopCount, Packard Instruments, Pangbourne, Berks, UK). Compounds for kinase assay were made up as 10 mM stocks in DMSO and diluted into 10% DMSO in assay buffer. Data was analysed using curve-fitting software (GraphPad Prism version 3.00 for Windows, GraphPad Software, San Diego Calif. USA) to determine IC50 values (concentration of test compound which inhibits kinase activity by 50%).

Chain of GSK-3β (G1T8E2 1-432): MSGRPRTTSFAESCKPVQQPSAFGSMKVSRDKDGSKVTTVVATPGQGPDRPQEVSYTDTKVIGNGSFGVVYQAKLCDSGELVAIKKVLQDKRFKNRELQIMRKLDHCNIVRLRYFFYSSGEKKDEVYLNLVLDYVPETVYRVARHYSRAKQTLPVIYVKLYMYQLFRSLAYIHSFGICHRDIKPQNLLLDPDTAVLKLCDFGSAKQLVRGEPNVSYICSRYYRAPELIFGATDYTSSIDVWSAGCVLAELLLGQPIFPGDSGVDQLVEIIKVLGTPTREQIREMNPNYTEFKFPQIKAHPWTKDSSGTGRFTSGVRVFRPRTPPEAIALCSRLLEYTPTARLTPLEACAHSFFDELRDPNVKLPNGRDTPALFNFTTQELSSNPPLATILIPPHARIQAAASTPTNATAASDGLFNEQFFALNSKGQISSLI
Chain of CDK1/cyclin B (P06493 whole entry, species assumed): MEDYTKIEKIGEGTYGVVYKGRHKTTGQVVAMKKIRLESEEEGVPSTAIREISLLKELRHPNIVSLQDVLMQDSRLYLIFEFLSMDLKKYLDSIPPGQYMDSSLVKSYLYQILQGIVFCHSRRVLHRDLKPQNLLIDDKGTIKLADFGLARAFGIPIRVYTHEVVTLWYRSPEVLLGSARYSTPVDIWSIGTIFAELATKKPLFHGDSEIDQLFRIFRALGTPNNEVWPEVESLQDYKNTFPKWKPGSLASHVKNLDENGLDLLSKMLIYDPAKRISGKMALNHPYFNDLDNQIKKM
Chain of CDK1/cyclin B (P14635 whole entry partner, species assumed): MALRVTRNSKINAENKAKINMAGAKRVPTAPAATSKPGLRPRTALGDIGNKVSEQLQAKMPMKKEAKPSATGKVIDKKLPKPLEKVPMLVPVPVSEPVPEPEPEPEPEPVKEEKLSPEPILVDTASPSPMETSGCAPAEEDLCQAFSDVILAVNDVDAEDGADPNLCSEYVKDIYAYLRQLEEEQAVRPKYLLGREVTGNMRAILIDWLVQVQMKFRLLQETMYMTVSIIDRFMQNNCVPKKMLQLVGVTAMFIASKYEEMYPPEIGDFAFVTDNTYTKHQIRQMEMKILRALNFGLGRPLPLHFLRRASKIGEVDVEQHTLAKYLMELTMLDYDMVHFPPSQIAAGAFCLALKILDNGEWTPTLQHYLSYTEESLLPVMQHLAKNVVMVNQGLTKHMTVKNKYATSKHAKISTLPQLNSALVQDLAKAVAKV

Row | SMILES | IC50 (GSK-3β) [nM] | IC50 (CDK1/cyclin B) [µM]
1 | O=[N+]([O-])c1cccc(Nc2nccc(-c3c[nH]c4ccccc34)n2)c1 [Compound 2, [4-(1H-Indol-3-yl)-pyrimidin-2-yl]-(3-nitro-phenyl)-amine] | 2100 | > 100
2 | COc1ccc(Nc2nccc(-c3c[nH]c4ccccc34)n2)cn1 [Compound 4, [4-(1H-Indol-3-yl)-pyrimidin-2-yl]-(6-methoxy-pyridin-3-yl)-amine] | 1600 | 1.9
3 | Fc1ccc(Nc2nccc(-c3c[nH]c4ccccc34)n2)cc1 [Compound 3, (4-Fluoro-phenyl)-[4-(1H-indol-3-yl)-pyrimidin-2-yl]-amine] | 8700 | > 100

— patent US20090318446A1, “4-(1H-Indol-3-yl)-Pyrimidin-2-Ylamine Derivatives and Their Use in Therapy” (Cyclacel Limited, priority 2005, published 2009)
